“Also recorded” adds a separate entry of the source.
How the values were obtained:
OCI-AML3 (NPM1 C+) [1] = assay: Viability assay (WST-1) in OCI-AML3 cell line; type: cell-based; settings: Homo sapiens, OCI-AML-3, viability percentage relative to vehicle, 24 h
Procedure: (§1) Two different acute myeloid leukemia cell lines, OCI-AML3 (NPM1 C+) and MOLM13 (NPM1 C−) were obtained from the DSMZ cell repository (Braunschweig, Germany). Cell lines were expanded and cryogenically frozen upon acquisition to establish stocks in liquid nitrogen until use. Cultured cells were maintained at 37° C. in a humidified incubator in an atmosphere of 5% CO2 and passaged every 2-3 days. RPMI media (Gibco/Life Technologies; Grand Island, NY) supplemented with 10% fetal bovine serum (FBS) (Hyclone) and 1% penicillin/streptomycin was used.
(§2) The sensitivity of the compounds on OCI-AML3 (NPM1 C+) and MOLM13 (NPM1 C−) cell viability was assessed as an in-vitro acute myeloid leukemia (AML) model. Briefly, cells were seeded at a density of 2×10^4 cells/100 μL/well in 96-well plates. Cell lines were treated for 24 h with the test compound diluted in DMSO at the concentration of 5 μM or vehicle (DMSO). Then, 10 μL of WST-1 solution ((2-(4-iodophenyl)-3-(4-nitrophenyl)-5-(2,4-disulfophenyl)-2H-tetrazolium monosodium salt, Merck) were added and the cells were incubated for 4 h at 37° C. The absorbance was measured at 450 nm using an Asys UVM 340 microplate reader (Biochrom Ltd., Cambridge, UK). The background absorbance of blank wells containing only medium was subtracted from each test well. The data were reported as viability percentage relative to vehicle, obtained from two or three independent experiments performed in triplicate (Table 1).

[2] = Pharmacokinetic study in mice; type: in vivo, mouse; parameters: in-vivo diffusion: dose or concentration left out as unconfirmed; settings: FIG. 5A
Procedure: Pharmacokinetic studies for compound Ic were performed. […] The area of the molecular peak allows to calculate the concentration of the compound present in mice serum at each time.

OCI-AML3-ffLuc-GFP cells = assay: AML xenograft mouse model (OCI-AML3-ffLuc-GFP cells in NSG mice); type: in vivo; settings: ip administration for 3 weeks, NSG mice with 1 million OCI-AML3-GFP-Luc cells, versus vehicle, FIG. 5B
Procedure: An AML xenograft mouse model was used for the study of in vivo efficacy. Female 6-8 week-old NOD.Cg-Prkdcscid II2rgtm1WjI/SzJ (NSG) mice (Vivotecnia, Madrid, Spain) were inoculated intravenously by tail vein injection with OCI-AML3-ffLuc-GFP cells (1×10^6). The animal experiment was performed according to the guidelines of the Institutional Animal Care and Use Committees of the Comunidad de Madrid, Spain, under approved protocol (PROEX 023/17). Four days later, mice were randomized into three groups of 10 animals: the first group received intraperitoneal injections of vehicle (0.9% saline solution) five days a week; the second group received 25 mg/kg of compound Ic intraperitoneally five times a week for four weeks; the third group received intraperitoneal injections of 50 mg/kg of compound Ic five times weekly for three weeks. Mice were monitored for tumor burden, distribution and engraftment every week by IVIS whole-body bioluminescence imaging. Bioimaging of […] burden in vivo was performed by IVIS Imaging system (Caliper Life Science). Before performing, Luciferin (D-luciferin monosodium salt, Thermofisher) was prepared in PBS and 150 mg/kg of Luciferin was injected i.p.; after 10 min, luminescence signal can be detected. The signal data was analyzed by the Living Image 4.2 (Caliper Life Science) software.

[3] = system: AML primary cells NPM1 mut; assay: Viability assay in primary CD34+ cells from AML patients, NPM1 mut; type: cell-based; settings: Homo sapiens, FIG. 2
Procedure: as §2
(§3) Primary cells from AML bone marrow patients CD34+ were isolated by anti-CD34+ microbeads (Miltenyi Biotech) from bone marrow of healthy donors and AML patients. Briefly, bone marrow samples were collected from AML and healthy patient pelvic bone, and were subjected to Ficoll-Paque density gradient separation to isolate mononuclear cells. […]

AML primary cells = assay: Colony formation unit assay in primary CD34+ cells from AML patients; type: cell-based; settings: Homo sapiens, 336 h; methylcellulose culture, 14 days, FIG. 3; read-out: CFU-E: IC50 AML
Procedure: (§4) Sorted CD34^+ cells were plated in 24-well plates at a density of 3×10^4 cells per well in methylcellulose-based medium MethoCult GF H4434 (StemCell Technologies) containing stem cell factor (SCF), interleukin-3 (IL-3), erythropoietin (EPO) and granulocyte macrophage colony stimulating factor (GM-CSF). Test compound was added directly to the cells within the methylcellulose medium, and incubated at 37° C. in a humidified atmosphere in the presence of 5% CO2 for 14 days. Total cells from colonies formed were counted manually using an inverted microscope/phase contrast microscopy with trypan-blue. The data were presented as percentage of colonies or percentage of viable cells relative to DMSO, obtained from two or three independent experiments performed in duplicate.

MOLM13 (NPM1 C−) [4] = assay: Viability assay (WST-1) in MOLM13 cell line; type: cell-based; settings: Homo sapiens, MOLM-13; dose-response curve, FIG. 1
OCI-AML3 (NPM1 C+) [5] = assay: Viability assay (WST-1) in OCI-AML3 cell line; type: cell-based; settings: Homo sapiens, OCI-AML-3; dose-response curve, FIG. 1
[6] = system: healthy donor bone marrow cells; assay: Viability assay in CD34+ healthy donor bone marrow cells; type: cell-based; settings: Homo sapiens, Bone marrow cell, FIG. 2, read-out: IC50 healthy donors
Procedure: as §2, §3

MOLM13 (NPM1 C−) [7] = assay: Viability assay (WST-1) in MOLM13 cell line; type: cell-based; settings: Homo sapiens, MOLM-13, viability percentage relative to vehicle, 24 h
Procedure: as §1, §2

[8] = system: healthy donor bone marrow cells; assay: Colony formation unit assay in CD34+ healthy donor bone marrow cells; type: cell-based; settings: Homo sapiens, Bone marrow cell, 336 h; methylcellulose culture, 14 days, FIG. 3; read-out: CFU-E: IC50 healthy donors
Procedure: as §4

[9] = system: AML primary cells NPM1 WT; assay: Viability assay in primary CD34+ cells from AML patients, NPM1 WT; type: cell-based; settings: Homo sapiens, FIG. 2
Procedure: as §2, §3

[10] = molecular target: T1, NPM1 cytoplasmic form (NPM1 C+) (Homo sapiens, UniProt P06748); assay: Effect on NPM1 cytoplasmic form (NPM1 C+) by confocal microscopy in OCI-AML3; type: cell-based; settings: OCI-AML3, 10 µM, 48 h, FIG. 4
T1 construct: endogenous in cells; host or cells: OCI-AML3 (DSMZ)
Procedure: OCI-AML3 (NPM1 C+) cells were plated onto glass coverslips or Greiner Bio-One μClear black 96-well plate (7.5×10^4 cells per well) and treated with test compound for 48 h. Then, cells were fixed with 4% paraformaldehyde for 15 min, permeabilized with 0.1% Triton X-100 for 30 min, and blocked in 5% bovine serum albumin during 1 h at rt. Incubation with primary antibodies against NPM1 (7H10B9, NOVUS Biologicals) was carried out overnight at 4° C. Alexa-488 conjugated anti-mouse or anti-rabbit antibodies (Molecular Probes) were used for detection of the reported proteins by confocal microscopy. Nuclei were counterstained with 4′,6-diamidino-2-phenylindole (DAPI) bath. A total of 35 fields per well were acquired with a ×40 magnification lens for those samples run in the Opera HCS system (Perkin Elmer). Images were segmented using the DAPI staining and the coefficient of variation of NPM1 intensity per nucleus/cytoplasm was calculated using Definiens Developer XD software.

T1 sequence (P06748 with tags, fused parts or gaps limits assumed): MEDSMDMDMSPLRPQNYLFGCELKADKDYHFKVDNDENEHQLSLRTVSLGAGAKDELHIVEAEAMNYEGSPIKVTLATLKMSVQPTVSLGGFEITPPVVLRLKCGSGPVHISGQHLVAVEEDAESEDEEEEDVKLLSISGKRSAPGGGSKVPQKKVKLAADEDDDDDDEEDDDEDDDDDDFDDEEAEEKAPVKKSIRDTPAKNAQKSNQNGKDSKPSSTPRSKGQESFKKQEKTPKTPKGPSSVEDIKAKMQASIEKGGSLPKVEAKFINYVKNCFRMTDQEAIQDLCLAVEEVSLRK

levels in mouse peripheral blood ([2]; 25 mg/kg intraperitoneal, first 6 h post-injection) | in-vivo diffusion ([2]; plasma concentration 30 minutes to 6 hours after ip administration) | IC50 (AML primary cells) | IC50 (MOLM13 (NPM1 C−) [4]) | IC50 (OCI-AML3 (NPM1 C+) [5]) | SMILES | viability at 5 µM (OCI-AML3 (NPM1 C+) [1]) | AML cell (tumour) infiltration (OCI-AML3-ffLuc-GFP cells) | IC50 [3] | IC50 [6] | viability at 5 µM (MOLM13 (NPM1 C−) [7]) | IC50 [8] | IC50 [9] | Effect on NPM1 / NPM1C+ (confocal microscopy) [10]
200 to 600 ng/mL | correct in-vivo diffusion was observed | 1.26 µM | 41.8 µM | 7.59 µM | COc1ccc([C@H]2Cc3[nH]c4ccccc4c3[C@@H](CCNCC3CC3)[C@@H]2N)cc1 [Ic, (2R,3R,4R)-4-{2-[(Cyclopropylmethyl)amino]ethyl}-2-(4-methoxyphenyl)-2,3,4,9-tetrahydro-1H-carbazol-3-amine] | 40 ± 2% | Tumour infiltration decrease was observed | 1.24 µM | 7.89 µM | 55 ± 6% | 4.6 µM | 5.03 µM | inhibition of the NPM1 cytoplasmic form (NPM1 C+) of the protein; also recorded: deplete NPM1 in OCI-AML3, especially NPM1C+ form
– | – | – | – | – | CN[C@@H]1[C@@H](c2ccc(OC)cc2)Cc2[nH]c3ccccc3c2[C@H]1CCNCC1CC1 [Ir, (2R,3R,4R)-4-{2-[(Cyclopropylmethyl)amino]ethyl}-2-(4-methoxyphenyl)-N-methyl-2,3,4,9-tetrahydro-1H-carbazol-3-amine] | 11 ± 3% | – | – | – | 15% | – | – | –
– | – | – | – | – | Cc1ccc([C@H]2Cc3[nH]c4ccccc4c3[C@@H](CCNCC3CC(F)(F)C3)[C@@H]2N)cc1 [Iu, (2R,3R,4R)-4-(2-{[(3,3-Difluorocyclobutyl)methyl]amino}ethyl)-2-(4-methylphenyl)-2,3,4,9-tetrahydro-1H-carbazol-3-amine] | 4 ± 3% | – | – | – | 6 ± 1% | – | – | –
– | – | – | – | – | Cc1cccc([C@H]2Cc3[nH]c4ccccc4c3[C@@H](CCNCC3CC3)[C@@H]2N)c1 [Il, (2R,3R,4R)-4-{2-[(Cyclopropylmethyl)amino]ethyl}-2-(3-methylphenyl)-2,3,4,9-tetrahydro-1H-carbazol-3-amine] | 19 ± 7% | – | – | – | 32 ± 4% | – | – | –

From patent US20240400515A1, “NPM1-DEPENDING LEUKEMIA AGENTS” (UNIVERSIDAD COMPLUTENSE DE MADRID, priority 2021, published 2024)
